Data: patent US20100099687A1, “TADALAFIL SOLID COMPOSITES” (Teva Pharmaceutical Industries Ltd., priority 2006, published 2010)

Assays:
[1] = Dissolution profile, USP Apparatus 2 (Paddles), conditions of Table 1; format: physicochemical; details: sample containing 20 mg tadalafil, 1000 mL aqueous 0.15 wt % sodium lauryl sulfate and 6 g/L NaH2PO4, pH about 4.5, 37° C., 50 RPM, FIG. 2
Method: Dissolution profiles described herein were determined in a dissolution vessel using a USP Apparatus 2 (Paddles) under the conditions described in Table 1. Samples were analyzed on-line by a UV detector.
A sample of the dry powder P-00464, containing 20 mg tadalafil was collected and its dissolution profile determined according to the conditions in Table 1. The dissolution profile of P00464 was compared with the dissolution profiles of commercial versions of tadalafil tablets (Clalis® 20 mg) and active drug substance with a particle size distribution (PSD) such that the value of d(0.9)=˜(about) 50 μm. The results of dissolution testing are illustrated in FIG. 1.
Samples of P-00464 from Example 1 and samples of tadalafil active material with PSD of d(0.9)=˜(about) 4 μm (designated TAPI AK-2186) were prepared for dissolution testing as described below. The dissolution profiles of the samples were determined according to the conditions in Table 1. The samples were analyzed on-line by UV detection, and were compared. FIG. 2 illustrates the averages of the samples for each drug. […]

[2] = cited from earlier work
[3] = organic solvents such as methanol, ethanol, and acetone; 'is understood to be'; cited from earlier work

| SMILES | tadalafil dissolved within 40 minutes [1] | water solubility ([2]; 25° C., reported by U.S. Pat. No. 6,841,167) | solubility in water ([2]; 'is understood to be') | solubility in some organic solvents [3] |
| --- | --- | --- | --- | --- |
| CN1CC(=O)N2[C@H](c3ccc4c(c3)OCO4)c3[nH]c4ccccc4c3C[C@@H]2C1=O | less than 70 wt % | – | – | – |
| CN1CC(=O)N2[C@H](c3ccc4c(c3)OCO4)c3[nH]c4ccccc4c3C[C@@H]2C1=O [tadalafil, (6R-trans)-6-(1,3-benzodioxol-5-yl)-2,3,6,7,12,12a-hexahydro-2-methyl-pyrazino[1′,2′:1,6]pyrido[3,4-]indole-1,4-dione] | – | about 2 μg per milliliter | practically insoluble | only very slightly soluble |
